We go through eight compounds from ChEMBL document CHEMBL1154173, “L-proline-catalysed facile green protocol for the synthesis and antimycobacterial evaluation of [1,4]-thiazines” (2009).

In brackets after ≈: the same amount, converted by molar mass.

The subject of this experiment is Mycobacterium tuberculosis. The experiment is described as follows: Antimycobacterial activity against multidrug resistant Mycobacterium tuberculosis by agar dilution method. The class given is functional. Background: In agar dilution, organisms are placed on agar that contains the substance at set levels.
As usually defined, the MIC is the least concentration at which growth counts as inhibited. Read a low MIC as greater potency. `CCOC(=O)C1C(c2ccc(C)cc2)NC(c2ccc(C)cc2)C(C(=O)c2ccc(Cl)cc2)S1(=O)=O` (racemic) returned an MIC of 1.48 µM (≈ 0.779 µg/mL). In other words, the single-digit micromolar range.

Consider `CCOC(=O)C1C(c2ccc(OC)cc2)NC(c2ccc(OC)cc2)C(C(=O)c2ccc(Cl)cc2)S1(=O)=O` (racemic), for which the lowest concentration to inhibit growth (MIC) was 1.4 µM (≈ 0.781 µg/mL).

Turning to `CCOC(=O)C1C(c2ccc(Cl)cc2)NC(c2ccc(Cl)cc2)C(C(=O)c2ccc(Cl)cc2)S1(=O)=O` (racemic), the MIC came to 5.52 µM (≈ 3.13 µg/mL).

In turn, `CCOC(=O)C1C(c2ccc([N+](=O)[O-])cc2)NC(c2ccc([N+](=O)[O-])cc2)C(C(=O)c2ccc(Cl)cc2)S1(=O)=O` (racemic) gave an MIC of 0.68 µM (≈ 0.4 µg/mL).

Take `CC[C@@H](CO)NCCN[C@@H](CC)CO` [ETHAMBUTOL]: it took 61.2 µM (≈ 12.5 µg/mL) to inhibit growth (MIC).

In turn, `NNC(=O)c1ccncc1` [ISONIAZID] yielded an MIC of 45.6 µM (≈ 6.25 µg/mL).

The compound `NC(=O)c1cnccn1` [PYRAZINAMIDE] had an MIC of 406 µM (≈ 50 µg/mL).

On to `CO[C@H]1/C=C/O[C@@]2(C)Oc3c(C)c(O)c4c(O)c(c(/C=N/N5CCN(C)CC5)c(O)c4c3C2=O)NC(=O)/C(C)=C\C=C\[C@H](C)[C@H](O)[C@@H](C)[C@@H](O)[C@@H](C)[C@H](OC(C)=O)[C@@H]1C` [RIFAMPIN], for which the MIC came out at 3.8 µM (≈ 3.13 µg/mL). Compared with the last compound, the MIC is about 110-fold lower.
